The source made the active and inactive calls.
Tests used:
[1] = target: Ras-related protein Rab-6A (Homo sapiens, UniProt P20340)
[2] = target: Membrane-associated progesterone receptor component 1 (Homo sapiens, UniProt O00264)
[3] = target: Serine/threonine-protein kinase pim-2 (Homo sapiens, UniProt Q9P1W9)
[4] = target: T1, Ras-related protein Rab-10 (Homo sapiens, UniProt P61026)
T1 sequence (P61026 whole entry): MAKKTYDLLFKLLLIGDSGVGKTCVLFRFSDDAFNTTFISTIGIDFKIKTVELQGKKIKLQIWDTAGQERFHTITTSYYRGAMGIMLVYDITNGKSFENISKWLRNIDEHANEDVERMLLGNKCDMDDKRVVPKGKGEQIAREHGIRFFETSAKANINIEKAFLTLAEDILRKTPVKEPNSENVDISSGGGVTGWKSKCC

[5] = target: T2, Breakpoint cluster region protein (Homo sapiens, UniProt P11274)
T2 sequence (P11274 whole entry): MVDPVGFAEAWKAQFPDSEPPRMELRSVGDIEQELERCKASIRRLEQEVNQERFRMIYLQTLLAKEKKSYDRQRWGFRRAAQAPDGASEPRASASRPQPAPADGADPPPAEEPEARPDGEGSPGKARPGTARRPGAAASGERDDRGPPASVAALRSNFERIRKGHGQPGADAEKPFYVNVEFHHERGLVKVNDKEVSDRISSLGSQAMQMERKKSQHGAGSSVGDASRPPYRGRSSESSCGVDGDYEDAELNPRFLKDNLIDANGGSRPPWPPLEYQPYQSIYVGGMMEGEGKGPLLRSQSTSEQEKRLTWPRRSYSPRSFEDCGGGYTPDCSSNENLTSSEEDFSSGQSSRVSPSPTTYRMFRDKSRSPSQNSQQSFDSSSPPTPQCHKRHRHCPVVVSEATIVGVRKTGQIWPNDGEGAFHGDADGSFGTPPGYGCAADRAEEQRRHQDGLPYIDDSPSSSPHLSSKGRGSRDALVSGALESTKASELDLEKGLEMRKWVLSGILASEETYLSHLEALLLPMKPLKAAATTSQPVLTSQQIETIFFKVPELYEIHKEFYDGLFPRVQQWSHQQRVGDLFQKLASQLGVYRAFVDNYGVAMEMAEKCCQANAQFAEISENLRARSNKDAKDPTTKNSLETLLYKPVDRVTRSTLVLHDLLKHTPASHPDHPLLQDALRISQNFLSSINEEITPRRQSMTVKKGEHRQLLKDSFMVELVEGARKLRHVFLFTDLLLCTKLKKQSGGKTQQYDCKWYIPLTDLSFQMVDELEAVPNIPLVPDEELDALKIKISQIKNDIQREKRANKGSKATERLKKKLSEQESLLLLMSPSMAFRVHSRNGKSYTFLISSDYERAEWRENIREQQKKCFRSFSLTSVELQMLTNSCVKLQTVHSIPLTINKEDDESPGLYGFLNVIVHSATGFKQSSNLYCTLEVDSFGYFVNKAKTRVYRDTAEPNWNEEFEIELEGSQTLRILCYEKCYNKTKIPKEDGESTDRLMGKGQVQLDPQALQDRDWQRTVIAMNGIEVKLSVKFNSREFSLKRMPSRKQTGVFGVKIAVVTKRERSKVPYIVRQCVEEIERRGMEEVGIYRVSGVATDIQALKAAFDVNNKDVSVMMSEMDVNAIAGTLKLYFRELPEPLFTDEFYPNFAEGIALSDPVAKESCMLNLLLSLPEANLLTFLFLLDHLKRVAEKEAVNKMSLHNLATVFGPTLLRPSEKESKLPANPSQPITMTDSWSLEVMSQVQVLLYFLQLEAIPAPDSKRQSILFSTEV

[6] = target: High affinity nerve growth factor receptor (Homo sapiens, UniProt P04629)
Sequence of High affinity nerve growth factor receptor (P04629 whole entry): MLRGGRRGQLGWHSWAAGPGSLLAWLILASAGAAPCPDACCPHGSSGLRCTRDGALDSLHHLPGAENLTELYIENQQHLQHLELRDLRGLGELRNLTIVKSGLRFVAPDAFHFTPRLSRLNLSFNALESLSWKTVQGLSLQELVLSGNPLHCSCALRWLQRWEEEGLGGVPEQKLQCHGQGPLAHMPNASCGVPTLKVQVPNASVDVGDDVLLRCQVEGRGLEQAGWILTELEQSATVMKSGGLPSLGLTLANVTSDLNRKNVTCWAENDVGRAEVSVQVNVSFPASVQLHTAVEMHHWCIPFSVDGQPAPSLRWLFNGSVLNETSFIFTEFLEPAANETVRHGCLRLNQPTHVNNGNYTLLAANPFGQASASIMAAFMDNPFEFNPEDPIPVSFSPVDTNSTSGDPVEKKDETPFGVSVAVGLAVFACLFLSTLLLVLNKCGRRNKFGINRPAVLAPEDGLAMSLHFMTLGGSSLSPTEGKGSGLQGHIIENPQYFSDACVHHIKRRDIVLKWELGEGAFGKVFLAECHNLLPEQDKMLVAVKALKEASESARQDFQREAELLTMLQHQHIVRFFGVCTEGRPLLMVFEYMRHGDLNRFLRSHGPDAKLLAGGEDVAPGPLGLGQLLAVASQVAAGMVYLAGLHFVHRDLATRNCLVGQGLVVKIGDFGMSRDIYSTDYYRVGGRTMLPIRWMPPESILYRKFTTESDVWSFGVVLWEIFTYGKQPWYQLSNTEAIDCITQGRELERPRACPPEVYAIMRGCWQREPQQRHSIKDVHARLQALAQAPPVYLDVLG

[7] = target: Serine/threonine-protein kinase Nek7 (Homo sapiens, UniProt Q8TDX7)
Sequence of Serine/threonine-protein kinase Nek7 (Q8TDX7 whole entry): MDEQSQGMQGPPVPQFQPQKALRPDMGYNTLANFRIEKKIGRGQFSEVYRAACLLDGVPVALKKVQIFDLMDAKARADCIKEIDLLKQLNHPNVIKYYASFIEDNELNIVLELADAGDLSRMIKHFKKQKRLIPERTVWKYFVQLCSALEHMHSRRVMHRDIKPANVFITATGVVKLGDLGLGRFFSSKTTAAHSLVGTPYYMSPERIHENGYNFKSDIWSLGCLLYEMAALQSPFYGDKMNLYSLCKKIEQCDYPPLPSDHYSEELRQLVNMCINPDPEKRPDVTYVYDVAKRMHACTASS

[8] = target: Cyclin-dependent kinase 3 (Homo sapiens, UniProt Q00526)
Sequence of Cyclin-dependent kinase 3 (Q00526 whole entry): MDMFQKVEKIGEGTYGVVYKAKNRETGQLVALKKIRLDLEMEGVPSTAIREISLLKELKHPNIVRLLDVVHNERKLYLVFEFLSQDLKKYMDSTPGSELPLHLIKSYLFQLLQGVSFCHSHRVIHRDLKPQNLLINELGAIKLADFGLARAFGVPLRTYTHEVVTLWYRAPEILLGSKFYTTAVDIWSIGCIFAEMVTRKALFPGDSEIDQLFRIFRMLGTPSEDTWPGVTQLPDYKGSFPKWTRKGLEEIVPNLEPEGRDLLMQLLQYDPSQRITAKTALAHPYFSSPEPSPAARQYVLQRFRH

[9] = target: Cyclin-dependent kinase 17 (Homo sapiens, UniProt Q00537)
Sequence of Cyclin-dependent kinase 17 (Q00537 whole entry): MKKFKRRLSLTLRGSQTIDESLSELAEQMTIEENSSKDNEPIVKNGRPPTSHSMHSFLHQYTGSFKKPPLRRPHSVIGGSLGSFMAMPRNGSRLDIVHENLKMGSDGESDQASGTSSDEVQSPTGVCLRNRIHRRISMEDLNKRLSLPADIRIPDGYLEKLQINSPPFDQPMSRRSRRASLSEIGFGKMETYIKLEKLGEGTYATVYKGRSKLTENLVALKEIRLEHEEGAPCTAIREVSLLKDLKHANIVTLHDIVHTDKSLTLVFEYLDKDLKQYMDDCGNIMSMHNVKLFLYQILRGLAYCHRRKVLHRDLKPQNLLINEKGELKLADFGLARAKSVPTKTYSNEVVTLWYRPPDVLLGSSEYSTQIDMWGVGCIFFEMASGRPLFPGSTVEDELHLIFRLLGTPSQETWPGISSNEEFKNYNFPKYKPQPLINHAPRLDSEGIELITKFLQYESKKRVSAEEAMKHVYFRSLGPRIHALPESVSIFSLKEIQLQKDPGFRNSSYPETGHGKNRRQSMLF

[10] = target: T3, Electron transfer flavoprotein subunit beta (Homo sapiens, UniProt P38117)
T3 sequence (P38117 whole entry): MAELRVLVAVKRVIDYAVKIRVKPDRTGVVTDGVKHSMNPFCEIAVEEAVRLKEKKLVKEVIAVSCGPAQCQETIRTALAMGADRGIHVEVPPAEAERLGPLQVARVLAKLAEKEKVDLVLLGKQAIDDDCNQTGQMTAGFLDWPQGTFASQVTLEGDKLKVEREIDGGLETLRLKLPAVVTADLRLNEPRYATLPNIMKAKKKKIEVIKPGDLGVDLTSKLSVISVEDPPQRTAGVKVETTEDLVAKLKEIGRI

[11] = target: Serine/threonine-protein kinase PLK1 (Homo sapiens, UniProt P53350)
Sequence of Serine/threonine-protein kinase PLK1 (P53350 whole entry): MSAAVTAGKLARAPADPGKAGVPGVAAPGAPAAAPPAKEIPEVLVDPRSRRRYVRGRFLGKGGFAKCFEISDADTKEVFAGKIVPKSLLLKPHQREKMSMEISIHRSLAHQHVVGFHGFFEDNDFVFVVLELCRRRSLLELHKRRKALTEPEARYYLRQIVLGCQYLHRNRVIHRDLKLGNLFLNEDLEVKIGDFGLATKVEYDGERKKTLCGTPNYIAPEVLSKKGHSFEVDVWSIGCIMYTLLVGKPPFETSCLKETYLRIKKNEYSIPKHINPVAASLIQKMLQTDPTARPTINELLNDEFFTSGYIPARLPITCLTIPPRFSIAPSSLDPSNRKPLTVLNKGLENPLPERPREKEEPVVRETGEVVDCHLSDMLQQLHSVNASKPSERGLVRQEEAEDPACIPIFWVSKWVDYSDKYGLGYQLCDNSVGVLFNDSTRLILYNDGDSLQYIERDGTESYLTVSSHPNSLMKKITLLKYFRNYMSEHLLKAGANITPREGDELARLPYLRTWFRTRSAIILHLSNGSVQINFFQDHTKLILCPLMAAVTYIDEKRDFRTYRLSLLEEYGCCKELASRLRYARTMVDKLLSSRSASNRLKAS

[12] = target: T4, Long-chain-fatty-acid--CoA ligase 5 (Homo sapiens, UniProt Q9ULC5)
T4 sequence (Q9ULC5 whole entry): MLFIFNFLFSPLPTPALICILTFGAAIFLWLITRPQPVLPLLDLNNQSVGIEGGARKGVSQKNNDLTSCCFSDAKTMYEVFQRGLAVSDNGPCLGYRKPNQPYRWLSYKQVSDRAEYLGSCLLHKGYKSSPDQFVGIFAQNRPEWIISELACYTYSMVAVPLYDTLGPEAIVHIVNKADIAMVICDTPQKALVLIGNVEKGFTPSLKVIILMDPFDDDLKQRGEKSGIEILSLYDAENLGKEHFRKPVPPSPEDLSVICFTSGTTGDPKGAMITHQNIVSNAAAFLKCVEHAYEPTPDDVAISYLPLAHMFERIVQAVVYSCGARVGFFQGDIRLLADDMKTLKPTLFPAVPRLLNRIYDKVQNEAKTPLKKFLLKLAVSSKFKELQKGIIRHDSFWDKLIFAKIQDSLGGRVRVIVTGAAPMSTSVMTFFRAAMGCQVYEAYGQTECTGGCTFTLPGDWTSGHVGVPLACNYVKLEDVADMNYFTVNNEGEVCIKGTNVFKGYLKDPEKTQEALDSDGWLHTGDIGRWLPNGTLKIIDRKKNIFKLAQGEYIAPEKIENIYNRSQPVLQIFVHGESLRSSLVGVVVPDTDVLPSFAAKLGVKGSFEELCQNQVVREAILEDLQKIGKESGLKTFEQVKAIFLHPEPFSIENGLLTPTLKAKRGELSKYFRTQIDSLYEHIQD
Further: in the data inactive means no Kd found up to 30 µM.

Sequence of Ras-related protein Rab-6A (P20340 whole entry): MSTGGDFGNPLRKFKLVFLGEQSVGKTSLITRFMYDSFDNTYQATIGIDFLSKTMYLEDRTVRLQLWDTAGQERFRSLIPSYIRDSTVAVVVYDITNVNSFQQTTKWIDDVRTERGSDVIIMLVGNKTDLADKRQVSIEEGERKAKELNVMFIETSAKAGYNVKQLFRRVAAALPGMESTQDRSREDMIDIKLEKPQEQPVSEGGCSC
Sequence of Serine/threonine-protein kinase pim-2 (Q9P1W9 whole entry): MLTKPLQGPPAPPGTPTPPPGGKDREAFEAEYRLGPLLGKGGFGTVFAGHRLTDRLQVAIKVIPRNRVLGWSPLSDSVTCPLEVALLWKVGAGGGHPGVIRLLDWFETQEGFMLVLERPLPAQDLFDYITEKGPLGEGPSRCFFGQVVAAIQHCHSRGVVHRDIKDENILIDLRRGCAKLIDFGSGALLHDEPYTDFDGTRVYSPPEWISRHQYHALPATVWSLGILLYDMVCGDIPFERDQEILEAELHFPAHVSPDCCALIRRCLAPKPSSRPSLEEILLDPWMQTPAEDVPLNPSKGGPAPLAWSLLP
Sequence of Membrane-associated progesterone receptor component 1 (O00264 whole entry): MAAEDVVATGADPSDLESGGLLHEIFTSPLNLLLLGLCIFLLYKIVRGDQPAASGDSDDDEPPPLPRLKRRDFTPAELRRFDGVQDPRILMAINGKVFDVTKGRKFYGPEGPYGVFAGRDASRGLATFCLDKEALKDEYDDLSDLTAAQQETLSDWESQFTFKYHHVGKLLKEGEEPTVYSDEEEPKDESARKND

SMILES | Kd [1] | Kd [2] | Kd [3] | Kd [4] | Kd [5] | Kd [6] | Kd [7] | Kd [8] | Kd [9] | Kd [10] | Kd [11] | Kd [12]
C[C@@H](Oc1cc(C(=O)Nc2ccc(C(=O)N3CCN(C)CC3)cc2)nnc1N)c1c(Cl)ccc(F)c1Cl | > 30 µM (inactive) | > 30 µM (inactive) | > 30 µM (inactive) | > 30 µM (inactive) | > 30 µM (inactive) | > 30 µM (inactive) | > 30 µM (inactive) | > 30 µM (inactive) | – | – | – | –
COCc1c(-c2ccc(NC(=O)Nc3cc(C(F)(F)F)ccc3F)c(F)c2)c2c(N)ncnn2c1CN1CCOCC1 | > 30 µM (inactive) | > 30 µM (inactive) | – | > 30 µM (inactive) | 4.21 µM (active) | > 30 µM (inactive) | – | > 30 µM (inactive) | > 30 µM (inactive) | > 30 µM (inactive) | > 30 µM (inactive) | > 30 µM (inactive)
NC(=O)Nc1cc(-c2cccc(F)c2)sc1C(=O)N[C@H]1CCCNC1 [AZD-7762] | > 30 µM (inactive) | > 30 µM (inactive) | > 30 µM (inactive) | > 30 µM (inactive) | – | – | > 30 µM (inactive) | 0.139 µM (active) | > 30 µM (inactive) | > 30 µM (inactive) | – | > 30 µM (inactive)
COc1c(OCCCN2CCOCC2)ccc2c1N=C(NC(=O)c1cnc(N)nc1)N1CCN=C21 [COPANLISIB] | > 30 µM (inactive) | – | – | > 30 µM (inactive) | > 30 µM (inactive) | > 30 µM (inactive) | – | > 30 µM (inactive) | > 30 µM (inactive) | > 30 µM (inactive) | > 30 µM (inactive) | > 30 µM (inactive)
FC(F)(F)c1ccc(/C=C/c2nc(COc3ccc(CCCCn4ccnn4)cc3)co2)cc1 [MUBRITINIB] | > 30 µM (inactive) | > 30 µM (inactive) | > 30 µM (inactive) | > 30 µM (inactive) | > 30 µM (inactive) | > 30 µM (inactive) | – | > 30 µM (inactive) | > 30 µM (inactive) | – | > 30 µM (inactive) | –
Cc1nc(Nc2n[nH]c3c2CN(C(=O)N[C@H](CN(C)C)c2ccccc2)C3(C)C)c2sccc2n1 [PF-03758309] | > 30 µM (inactive) | > 30 µM (inactive) | – | > 30 µM (inactive) | 1.28 µM (active) | 2.21 µM | – | 63.6 µM (active) | 0.014 µM (active) | > 30 µM (inactive) | > 30 µM (inactive) | > 30 µM (inactive)
CO[C@H]1C[C@@H]2CC[C@@H](C)[C@@](O)(O2)C(=O)C(=O)N2CCCC[C@H]2C(=O)O[C@H]([C@H](C)C[C@@H]2CC[C@@H](OP(C)(C)=O)[C@H](OC)C2)CC(=O)[C@H](C)/C=C(\C)[C@@H](O)[C@@H](OC)C(=O)[C@H](C)C[C@H](C)/C=C/C=C/C=C/1C [RIDAFOROLIMUS] | > 30 µM (inactive) | > 30 µM (inactive) | > 30 µM (inactive) | > 30 µM (inactive) | > 30 µM (inactive) | > 30 µM (inactive) | > 30 µM (inactive) | > 30 µM (inactive) | > 30 µM (inactive) | > 30 µM (inactive) | – | > 30 µM (inactive)
N#CC1(c2ccc(NC(=O)c3cccnc3NCc3ccncc3)cc2)CCCC1 [RIVOCERANIB] | > 30 µM (inactive) | – | – | > 30 µM (inactive) | > 30 µM (inactive) | > 30 µM (inactive) | > 30 µM (inactive) | – | > 30 µM (inactive) | > 30 µM (inactive) | – | > 30 µM (inactive)
Cn1cc(-c2cnn3c(N)c(Br)c([C@@H]4CCCNC4)nc23)cn1 [SCH-900776] | > 30 µM (inactive) | > 30 µM (inactive) | – | > 30 µM (inactive) | > 30 µM (inactive) | > 30 µM (inactive) | > 30 µM (inactive) | > 30 µM (inactive) | > 30 µM (inactive) | > 30 µM (inactive) | – | > 30 µM (inactive)
O=C1NC(=O)[C@@H](c2cn3c4c(cccc24)CCC3)[C@@H]1c1c[nH]c2ccccc12 [TIVANTINIB] | > 30 µM (inactive) | > 30 µM (inactive) | > 30 µM (inactive) | > 30 µM (inactive) | > 30 µM (inactive) | > 30 µM (inactive) | > 30 µM (inactive) | > 30 µM (inactive) | > 30 µM (inactive) | > 30 µM (inactive) | – | > 30 µM (inactive)

Reference: ChEMBL document CHEMBL3991601, “The target landscape of clinical kinase drugs” (Science, 2017)
